Experimental findings from patent publication US20030105158A1, “Hydrates of a neuraminic acid compound and crystalline forms thereof” (SANKYO COMPANY, LIMITED, priority 2000, published 2003) are described below.

Structures can show the parent of a compound that is named as a salt.

This data set is described as follows: Stability test (storage stability, residual amount by HPLC). Type of data set: physicochemical. The following applies: relative to initial content (100%). On the procedure:
In the stability test, the crystals of the compound (I) of the present invention prepared in Example 1 and as reference, the amorphous powder (trifluoroacetate salt) of compound (I) described in Example 35 of the specification of Japanese Patent Application Publication No. Hei 10-330373 were used. These compounds were stored separately at 40° C. in a desiccator with a relative humidity of 75% for 56 days (8 weeks), and the content of these compounds was measured on 14 (2 weeks), 28 (4 weeks) and 56 days (8 weeks) after the initiation of the storage.
Furthermore, these compounds were also stored separately at 60° C. in a desiccator with silica gel for 56 days (8 weeks), and the content of these compounds was measured in the same manner as that described above.
The contents of these compounds were determined quantitatively with high performance liquid chromatography (HPLC), and the amount of the remaining compounds (%) at each sampling point was calculated based on the initial content (100%) determined immediately before the storage.

The mark [1] stands for this setting: stored at 40° C. in a desiccator with a relative humidity of 75%, 14 days.
[2] abbreviates: stored at 40° C. in a desiccator with a relative humidity of 75%, 28 days.
Where [3] appears, read: stored at 40° C. in a desiccator with a relative humidity of 75%, 56 days.
The mark [4] stands for this setting: stored at 60° C. in a desiccator with silica gel, 14 days.
Setting [5] is: stored at 60° C. in a desiccator with silica gel, 28 days.
The mark [6] stands for this setting: stored at 60° C. in a desiccator with silica gel, 56 days.

For `CCCCCCCC(=O)OC[C@@H](O)[C@@H](OC)[C@@H]1OC(C(=O)O)=C[C@H](NC(=N)N)[C@H]1NC(C)=O` [Amorphous powder of compound (I), trifluoroacetate salt of 5-acetamido-4-guanidino-9-O-octanoyl-2,3,4,5-tetradeoxy-7-O-methyl-D-glycero-D-galacto-non-2-enopyranosonic acid], the “Residual amount (amount of the remaining compound)” value is reported as 38.5% under setting [1]; 27.2% under setting [2]; 10.2% under setting [3]; 10.2% (stored at 40° C. in a desiccator with a relative humidity of 75%, 56 days, listed as amorphous powder (trifluoacetate salt) of compound (I)); 95.7% under setting [4]; 92.9% under setting [5]. Moreover, the “Residual amount (amount of the remaining compound)” value was determined as 89.0% under setting [6] and 89% (stored at 60° C. in a desiccator with silica gel, 56 days, listed as amorphous powder (trifluoacetate salt) of compound (I)).

For the compound `CCCCCCCC(=O)OC[C@@H](O)[C@@H](OC)[C@@H]1OC(C(=O)O)=C[C@H](NC(=N)N)[C@H]1NC(C)=O` [Hydrated crystal of compound (I), 5-Acetamido-4-guanidino-9-O-octanoyl-2,3,4,5-tetradeoxy-7-O-methyl-D-glycero-D-galacto-non-2-enopyranosonic Acid Hydrate in Crystalline Form], the “Residual amount (amount of the remaining compound)” value is 99.8% under setting [1]; 100.2% under setting [2]; 100.3% under setting [3]; 100% (stored at 40° C. in a desiccator with a relative humidity of 75%, 56 days, listed as crystals (hydrated crystals) of compound (I)); 99.9% under setting [4]; 100.6% under setting [5]. Moreover, the “Residual amount (amount of the remaining compound)” value runs as follows: under setting [6], 99.6%; (stored at 60° C. in a desiccator with silica gel, 56 days, listed as crystals (hydrated crystals) of compound (I)) “more than 99%”.
